Laboratory results published in ChEMBL document CHEMBL4196001, “Design, semisynthesis, α-glucosidase inhibitory, cytotoxic, and antibacterial activities of p-terphenyl derivatives” (Eur J Med Chem, 2018).
In brackets after ≈: the same amount, converted by molar mass. Activity calls are given as the source filed them. The calls are words filed in the database; no cut-off is given here.

How the values were obtained:
[1] = Cytotoxicity against human Chang cells by SRB assay; assay type: cell-based
[2] = biological target: T1, Alpha glucosidase (Homo sapiens, UniProt O43451+P10253+P14410+Q2M2H8); assay: Non-competitive inhibition of human alpha-glucosidase expressed in Saccharomyces cerevisiae using p-nitrophenyl-alpha-D-glucopyranoside as substrate after 15 mins by Lineweaver-Burk plot analysis
[3] = tested on: HepG2; assay: Cytotoxicity against human HepG2 cells at 10 uM by SRB assay; assay type: functional, cell-based
[4] = tested on: HeLa; assay: Cytotoxicity against human HeLa cells after 3 days by hematoxylin-eosin staining-based assay; assay type: functional; details: 72 h, read-out: ID50 (the source's name)
[5] = biological target: T1, Alpha glucosidase; assay: Inhibition of human alpha-glucosidase expressed in Saccharomyces cerevisiae using p-nitrophenyl-alpha-D-glucopyranoside as substrate after 15 mins
[6] = tested on: HeLa; assay: Cytotoxicity against human HeLa cells by SRB assay; assay type: functional, cell-based
[7] = tested on: A549; assay: Cytotoxicity against human A549 cells at 10 uM by SRB assay; assay type: functional, cell-based
[8] = tested on: HeLa; assay: Cytotoxicity against human HeLa cells at 10 uM by SRB assay; assay type: functional, cell-based
[9] = Cytotoxicity against human Chang cells at 10 uM by SRB assay; assay type: cell-based
[10] = tested on: MDA-MB-435; assay: Cytotoxicity against human MDA-MB-435 cells; assay type: functional, cell-based
[11] = tested on: alpha-glucosidase; assay: Therapeutic index, ratio of CC50 for human Chang cells to IC50 for human alpha-glucosidase expressed in Saccharomyces cerevisiae; assay type: toxicity; details: read-out: Ratio CC50/IC50
[12] = tested on: A549; assay: Cytotoxicity against human A549 cells by SRB assay; assay type: functional, cell-based
[13] = tested on: HepG2; assay: Cytotoxicity against human HepG2 cells by SRB assay; assay type: functional, cell-based
[14] = tested on: Staphylococcus aureus; assay: Antibacterial activity against Staphylococcus aureus after 24 hrs by broth macrodilution method; assay type: functional
[15] = tested on: HeLa; assay: Cell cycle arrest in human HeLa cells assessed as accumulation of cells at G0/G1 phase at 5 uM after 36 hrs by flow cytometric analysis (reference value: 66.64%); assay type: functional
[16] = tested on: HeLa; assay: Cell cycle arrest in human HeLa cells assessed as accumulation of cells at S phase at 1.25 uM after 36 hrs by flow cytometric analysis (reference value: 23.44%); assay type: functional
[17] = tested on: HeLa; assay: Cell cycle arrest in human HeLa cells assessed as accumulation of cells at S phase at 10 uM after 36 hrs by flow cytometric analysis (reference value: 23.44%); assay type: functional
[18] = tested on: HeLa; assay: Cell cycle arrest in human HeLa cells assessed as accumulation of cells at G0/G1 phase at 2.5 uM after 36 hrs by flow cytometric analysis (reference value: 66.64%); assay type: functional
[19] = tested on: HeLa; assay: Cell cycle arrest in human HeLa cells assessed as accumulation of cells at G0/G1 phase at 1.25 uM after 36 hrs by flow cytometric analysis (reference value: 66.64%); assay type: functional
[20] = tested on: HeLa; assay: Cell cycle arrest in human HeLa cells assessed as accumulation of cells at S phase at 2.5 uM after 36 hrs by flow cytometric analysis (reference value: 23.44%); assay type: functional
[21] = tested on: HeLa; assay: Cell cycle arrest in human HeLa cells assessed as accumulation of cells at G2/M phase at 2.5 uM after 36 hrs by flow cytometric analysis (reference value: 9.92%); assay type: functional
[22] = tested on: HeLa; assay: Cell cycle arrest in human HeLa cells assessed as accumulation of cells at G2/M phase at 5 uM after 36 hrs by flow cytometric analysis (reference value: 9.92%); assay type: functional
[23] = tested on: HeLa; assay: Cell cycle arrest in human HeLa cells assessed as accumulation of cells at S phase at 5 uM after 36 hrs by flow cytometric analysis (reference value: 23.44%); assay type: functional
[24] = tested on: HeLa; assay: Cell cycle arrest in human HeLa cells assessed as accumulation of cells at G2/M phase at 1.25 uM after 36 hrs by flow cytometric analysis (reference value: 9.92%); assay type: functional
[25] = tested on: HeLa; assay: Cell cycle arrest in human HeLa cells assessed as accumulation of cells at G0/G1 phase at 10 uM after 36 hrs by flow cytometric analysis (reference value: 66.64%); assay type: functional
[26] = tested on: HeLa; assay: Cell cycle arrest in human HeLa cells assessed as accumulation of cells at G2/M phase at 10 uM after 36 hrs by flow cytometric analysis (reference value: 9.92%); assay type: functional

In the case of `COc1cc(-c2ccc(O)cc2)c(OC)c(O)c1-c1ccc(O)cc1` [TERPHENYLLIN], the CC50 [1] is reported as 6.95 µM, the Ki [2] is reported as 1.5 µM and the Activity [3] is reported as “inactive”. For the same compound, the IC50 [4] was 10 mg/L (≈ 29.6 µM), the IC50 [5] was 4.79 µM and the IC50 [6] was 15.1 µM. The Activity [7] was “inactive”.
With `COc1cc(-c2ccc(O)cc2)c(OC)c(O)c1-c1ccc(O)c(O)c1` the Activity [8] was “inactive”, the Activity [9] was “Non-Toxic” and the IC50 [10] was under 20 µM. For the same compound, the Activity [3] was “inactive”, the IC50 [5] was 11.3 µM and the Activity [7] was “inactive”.
In the case of `COc1cc(-c2ccc(O)cc2)c(OC)c(OCCC(C)C)c1-c1ccc(O)cc1`, the Activity [8] is reported as “inactive”, the Activity [9] is reported as “Non-Toxic” and the Ki [2] is reported as 3.45 µM. The Activity [3] was “inactive”, the IC50 [5] was 8.58 µM and the Activity [7] was “inactive”.
In the case of `COc1cc(-c2ccccc2)c(OC)c(O)c1-c1ccc(O)cc1`, the Activity [8] is reported as “inactive”, the Activity [9] is reported as “Non-Toxic” and the Activity [3] is reported as “inactive”. For the same compound, the IC50 [4] was 32 mg/L (≈ 99.3 µM), the IC50 [5] was 108.2 µM and the Activity [7] was “inactive”.
For `CCCOc1ccc(-c2cc(OC)c(-c3ccc(O)cc3)c(O)c2OC)cc1`, the CC50 [1] was 98.5 µM, the Activity [8] was “inactive” and the Activity [3] was “inactive”. For the same compound, the IC50 [5] was 10 µM, the selectivity ratio [11] was 10 and the Activity [7] was “inactive”.
For `COc1cc(-c2ccc(O)c(O)c2)c(OC)c(O)c1-c1ccc(O)c(O)c1`, the Activity [8] was “inactive”, the Activity [9] was “Non-Toxic” and the IC50 [10] was under 20 µM. For the same compound, the Activity [3] was “inactive”, the IC50 [5] was 14 µM and the Activity [7] was “inactive”.
Work on `C=CCOc1ccc(-c2c(OC)cc(-c3ccc(O)cc3)c(OC)c2O)cc1` yielded a CC50 [1] of 0.57 µM, an IC50 [12] of 0.17 µM and an IC50 [5] of 32.2 µM. It also gave an IC50 [13] of 0.95 µM, an IC50 [6] of 1.02 µM and an MIC [14] of 6.25 µM (≈ 2.37 µg/mL).
For `COc1cc(-c2ccc(O)cc2)c(O)c(O)c1-c1ccc(O)cc1`, the CC50 [1] was 224 µM, the Activity [8] was “inactive” and the Activity [3] was “inactive”. The IC50 [5] was 13.2 µM, the selectivity ratio [11] was 17 and the Activity [7] was “inactive”.
`COc1cc(-c2ccc(O)cc2)c(OC)c(O)c1-c1ccc(OCC=C(C)C)cc1` showed a CC50 [1] of 0.31 µM, an Activity [15] of 42.98% and an Activity [16] of 39.42%. The IC50 [12] was 0.31 µM, the Activity [17] was 57.2% and the Activity [18] was 43.71%. It also gave an IC50 [5] of 17.5 µM, an IC50 [13] of 0.46 µM and an IC50 [6] of 3.18 µM. It also gave an Activity [19] of 49.83%, an Activity [20] of 45.75% and an Activity [21] of 10.54%. It also gave an Activity [22] of 4.33%, an Activity [23] of 52.69% and an Activity [24] of 10.74%. It also gave an Activity [25] of 42.24% and an Activity [26] of 0.55%.
